For one experiment, the system named is dopaminergic neurons. In words: Survival assay, dopaminergic neurons (6-OHDA). Type of experiment: cell-based, Wistar rat. The note with it: 100 μM 6-OHDA for two hours, further 24 hours with peptide. Here is the method:
Dopaminergic neurons were prepared from Wistar rat embryos at embryonic day 15 (Charles River, Sulzfeld, Germany or Møllegaard, Denmark). A pregnant rat was sacrificed and the uterus was taken out and kept on ice in Hank's balanced salt solution (HBSS; Gibco, BRL). The ventral part of the mesencephalon was dissected from the embryonic brains, homogenised on ice in Gey's balanced salt solution (GBSS; Gibco, BRL) supplemented with 5 g glucose/l (Sigma-Aldrich) and thereafter trypsinised. The dissociated cells were washed in the presence of DNAse 1 and soybean trypsin inhibitor (Sigma-Aldrich).
Dopaminergic neurons were seeded at a density of 150,000 cells/cm^2 in 24-well cell culture plates coated with poly-D-lysine as described above. The neurons were left to differentiate for six days without or with various concentrations of peptide, after which 6-OHDA was added at a concentration of 100 μM for two hours. A stock solution was prepared by dissolving 6-OHDAto a concentration of 10 mM in 0.1% (w/v) sodium metabisulphite in order to prevent oxidation. After two hours with 6-OHDA, the medium was changed to Neurobasal medium with supplements and peptide, and the cell cultures were further incubated for 24 hours, fixed and immunostained for tyrosine hydroxylase. 98 images for each experimental condition in each individual experiment were automatically video-recorded.

For another experiment, the system named is Ig1-2 modules of NCAM. Kind of experiment: Surface plasmon resonance (SPR) binding analysis, NCAM Ig1-2. The note with it: immobilized receptor protein, 25° C., PBS pH 7.4. The procedure: Analysis of binding was performed employing a BIAcoreX instrument (Biosensor AB, Uppsala, Sweden) at 25° C. using 10 mM pH 7.4 sodium phosphate containing 150 mM NaCl as running buffer (phosphate-buffered saline, PBS). The flow-rate was 5 μl/min. Data were analysed by non-linear curve-fitting using the manufacturer's software. The receptor proteins, e.g. NCAM Ig1-Ig2 and GFR proteins, were immobilized on a sensor chip CM5 using an amine coupling kit (Biosensor AB) as follows: the chip was activated by 20 μl activation solution; the protein was immobilized using 12 μl 20 μg/ml protein in 10 mM sodium phosphate buffer pH 6.0; the chip was blocked by 35 μl blocking solution. Various peptides at the indicated concentrations were injected into the sensor chip. The curve corresponding to the difference between binding to receptor and a blank chip was used for analysis.
(In general: SPR reads the build-up and loss of mass on a sensor chip optically.)

In another experiment the test system is hippocampal neurons. Kind of experiment: Neurite outgrowth of hippocampal neurons transfected with dominant negative FGFR. The note with it: 10 ng/ml GDNF or 3 μg/ml GDNFp1, 18 hours, dnFGFR vs empty vector. Type of experiment: cell-based, rat. Here is the method:
For cocultures, L-cells were seeded in 8-well LabTek® Permanox Chamber slides at a density of 100.000 cells/well, except for transfection experiments where cells were seeded in 4-well LabTek® Permanox Chamber slides at a density of 200.000 cells/well. L-cells were grown for 24 hours in DMEM supplemented with 10% (v/v) FCS, 1% (v/v) glutamax, 100 U/ml penicillin, 100 μg/ml streptomycin, 2.5 μg/ml fungizone, and 567 μg/ml neomycin (G418), followed by washing twice in neurobasal medium with supplements before primary hippocampal neurons were seeded at a density of 7.000 cells/well in 8-well slides or 20.000 cells/well in 4-well slides.
Additionally, neurons were transiently transfected with a dominant negative version of the FGFR (dnFGFR), As an alternative to the use of a pharmacological FGFR inhibitor, The dnFGFR plasmid encodes an FGFR that lacks the kinase domain. This mutant receptor inhibits the function of wild type FGFR by engaging in dimers that lack kinase activity. Transfection with an empty vector served as control. Transfection was also done with wtFGFR in order to assess the effect of overexpressing the FGFR.
Transfections were performed with a Nucleofector™ device and a Rat Neuron Nucleofector™ kit (Amaxa Inc., Gaithersburg, Md., USA). This transfection method is based on electroporation in combination with a Nucleofector™ solution containing lipophilic agents. These agents form liposomes containing the plasmid DNA, which then enter the cells during electroporation. The method allows transfection of undividing cells such as neurons. 3 μg of the plasmid of interest was mixed with the Nucleofector™ solution and primary hippocampal neurons were resuspended in the mixture, electroporated in the Nucleofector™ device, and transferred to neurobasal medium with supplements and 5% (v/v) FCS. Cells were then incubated for 2 hours after which they were resuspended in medium without serum, counted, seeded and incubated for 6 hours before GDNF or GDNFp1 was added. Medium alone was added to control and cells were incubated for 18 hours.
All transient transfections in this study included co-transfection with a plasmid encoding EGFP, which allows the identification of transfected cells. To ensure that all EGFP-expressing cells also are transfected with the plasmid of interest, a ratio of […] between the EGFP-encoding plasmid and the plasmid of interest was used (i.e. 0.5 μg EGFP-encoding plasmid was used for each transfection).
Neurite outgrowth experiments were terminated after the stated time by fixating the cells. To visualize neurons and their neurites, immunostaining of GAP-43 was performed. This staining is specific for neurons. Transfected cells and their neurites should be visible without immunostaining due to the fluorescence emitted by GFP. […]

The text below walks through data of US8138148B2, “GDNF derived peptides” (Copenhagen University, priority 2005, dated 2012).

Take “ETTYDKILKNLSRNR (listed as Homo sapiens) [G2, GDNF fragment]”: the “survival of dopaminergic neurons” value in the experiment with dopaminergic neurons is given as “increases the survival of dopaminergic neurons”. Also, in the experiment on Ig1-2 modules of NCAM, the “binding to the Ig1-2 modules of NCAM (SPR)” value is on record as “Binding”. The “neurite outgrowth mediated by the substance after transfection with dominant negative FGFR, on NCAM-expressing fibroblasts” value with hippocampal neurons (NCAM-expressing fibroblasts) is listed as “decreases neurite outgrowth”. Besides, the “neurite outgrowth mediated by the substance after transfection with dominant negative FGFR, on control fibroblasts” value with hippocampal neurons (control fibroblasts) is “decreases neurite outgrowth”.
